Measured values reported in patent US20250099369A1, “TOPICAL DELIVERY COMPOSITIONS COMPRISING NON-STEROIDAL ANTI-INFLAMMATORY DRUGS” (Andros Pharmaceuticals Co., LTD., priority 2023, published 2025).

Experiment: physchem
Type: physicochemical
Details: 25 °C, aqueous buffer, thermodynamic from solid, Diclofenac Solubility
Procedure: In the aqueous solution containing 1% boric acid, add SPC (0%, 1%, 3%, 5%, 8%, 10%, 13%, 15%, 18%, 20%) and urea (0%, 5%, 10%, 20%, 30%, 40%, 50%) and stir until complete dissolution. A total of 70 sample solutions with different SPC and urea concentrations were obtained.
An excess of diclofenac sodium was added to each set of sample solutions and stirred overnight at 25° C. The sample solution was centrifuged at 12,000 rpm for 5 minutes, and a portion of the supernatant was diluted with appropriate diluent and analyzed by HPLC, to determine the solubility of diclofenac sodium in aqueous solutions containing different concentrations of SPC and urea. The results are presented in Table1.

## O=C(O)Cc1ccccc1Nc1c(Cl)cccc1Cl [diclofenac sodium]
  solubility: 19.7 mg/mL
